# Test results as given in patent US20250387360A1, “Methods and Compositions for Treatment of Addiction” (University of Connecticut, priority 2024, published 2025).
# Test system: male C57BL/6J mice
# Test: 4-day DID binge-like ethanol drinking with SCFA supplementation in drinking water
# Type: in vivo, mouse
# Conditions: 200 mM in drinking water 10 days, male mice n=21/group
# From the text: Male C57BL/6J mice, (RRID: IMSR_JAX: 000664), aged 6-8 weeks, were obtained from Jackson Laboratories (ME, U.S.A) for the study. The mice were housed individually under a reversed 12-hours light/dark cycle, with lights off from […] to 7:00 am. A minimum acclimation period of 2 weeks was provided for all animals before they were randomly assigned to their respective groups. Mice had free access to food (Irradiated chow, Teklad global 18% protein rodent diet, 2918, Inotiv, WI, U.S.A) and deionized water to acclimate to the testing environment. Body weight and daily food and fluid intake were monitored and noted for all animal experiments.
# A standard 4-day drinking in the dark (DID) model was used to evaluate binge-like ethanol drinking patterns in mice. A 20% v/v ethanol solution was prepared by diluting 190-proof ethyl alcohol (Sigma, MO, U.S.A) with deionized water. During days 1-3, the water bottles were temporarily removed during the dark cycle of the mice, and the mice were provided with a tube containing the 20% v/v ethanol solution for a duration of two hours. On day four, the assessment of binge-like ethanol consumption took place, where the mice were given access to the 20% v/v ethanol solution for a period of four hours. The volume of fluid in the tube (read to the closest 100 μL) was measured immediately upon placement, and at two hours and four hours into the test. Following the completion of the four hours test, approximately 100 μL of blood was collected through cardiac puncture after CO2 euthanasia. Blood samples were subjected to centrifugation at 10,000 rpm for 10 minutes. The determination of blood ethanol concentrations (BEC) was performed using an Analox AMI Analyzer (Analox Instruments, MA, U.S.A). The quantity of ethanol consumed was then calculated as grams per kilogram of the mouse's body weight.
# All SCFA were used in sodium salt form. Briefly, sodium acetate (Sigma, MO, U.S.A), sodium butyrate (Sigma, MO, U.S.A), sodium valerate (Ambeed, IL, U.S.A), and sodium chloride (NaCl; Sigma, Mo, U.S.A) were prepared at 200 mM concentration freshly in drinking water every two days. These concentrations were chosen based on earlier studies conducted in mice [Qi Y., et al., Sodium acetate regulates milk fat synthesis through the activation of GPR41/GPR43 signaling pathway. Frontiers in nutrition 2023, 10:1098715; Daien C I, et al., Gut-derived acetate promotes B10 cells with anti-inflammatory effects. JCI insight 2021, 6 (7)]. All SCFA and NaCl solutions were pH verified to control for acidity effects on daily consumption. SCFAs were given to mice via oral drinking for 10 consecutive days before any experiment, and this regimen was maintained throughout the entire experiment.
# General statistical analysis (non-microbiome and non-RNAseq analysis) were conducted using GraphPad Prism 8 (GraphPad, CA, USA, RRID:SCR_002798). For the calculation of ethanol consumption during the DID procedure, it was expressed as grams of ethanol per kilogram of body weight (g/kg body weight), where 20% ethanol intake was determined as follows: multiplying the drinking volume by the ethanol percentage within that volume and the density of ethanol, and then dividing this by the mouse's body weight in kilograms. Normality of data distributions was tested by Shapiro-Wilk test and by Q-Q plots. Levene's test was used to test equality of variances across groups. Unpaired Student's t-tests were used to compare behavioral testing, GABA levels, and histone acetylation measurements between the sodium valerate and NaCl groups. To evaluate the impact of antibiotic cocktail administration on ethanol consumption and BEC between the groups receiving Abx and PBS at baseline and after treatment, a mixed ANOVA test was employed, given repeated measures from the same mouse from the two time points. Similarly, mixed ANOVA tests were applied to compare various SCFA levels before and after Abx administration.
smiles,measurement,setting,value
CCCCC(=O)[O-].[Na+] [sodium valerate],BEC lowered,vs NaCl,53%
same,reduction in ethanol consumption,vs NaCl,40%
same,"ethanol consumption, median",NaCl control 7.16,4.03 g/kg body weight
